Experimental data published in patent US7018807B2, “Method and medium for detecting vancomycin-resistant enterococcus” (priority 1996, dated 2006).

What was measured:
Assay in all cases: MIC for vancomycin
Type in all cases: cell-based
[1] = test system: Enterococcus faecium VRE04; settings: strain VRE04, read-out: MIC (minimum inhibitory concentration for vancomycin)
[2] = test system: Enterococcus faecium VRE07; settings: strain VRE07, read-out: MIC (minimum inhibitory concentration for vancomycin)
[3] = test system: Enterococcus faecium VRE06; settings: strain VRE06, read-out: MIC (minimum inhibitory concentration for vancomycin)
[4] = test system: Enterococcus faecium VRE05; settings: strain VRE05, read-out: MIC (minimum inhibitory concentration for vancomycin)
[5] = test system: Enterococcus faecium VRE02; settings: VRE02, read-out: MIC (minimum inhibitory concentration for vancomycin)
[6] = test system: Enterococcus faecium VRE03; settings: strain VRE03, read-out: MIC (minimum inhibitory concentration for vancomycin)

Measured: MIC

CN[C@H](CC(C)C)C(=O)N[C@H]1C(=O)N[C@@H](CC(N)=O)C(=O)N[C@H]2C(=O)N[C@H]3C(=O)N[C@H](C(=O)N[C@H](C(=O)O)c4cc(O)cc(O)c4-c4cc3ccc4O)[C@H](O)c3ccc(c(Cl)c3)Oc3cc2cc(c3O[C@@H]2O[C@H](CO)[C@@H](O)[C@H](O)[C@H]2O[C@H]2C[C@](C)(N)[C@H](O)[C@H](C)O2)Oc2ccc(cc2Cl)[C@H]1O [vancomycin]
> 256 µg/mL: all assays above
